We go through 2 compounds from patent US20030077628A1, “Method of screening compounds for biological activity” (priority 2002, published 2003).

This assay concerns the target receptor B-subunit derived from the Escherichia coli O157 toxin (Bacteriophage H30, UniProt P69178). It counts as binding. The note with it: pH 7.

Sequence of receptor B-subunit derived from the Escherichia coli O157 toxin (P69178 21-89 limits assumed): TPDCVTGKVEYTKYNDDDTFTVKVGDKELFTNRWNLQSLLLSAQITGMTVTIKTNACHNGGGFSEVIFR

With `OC[C@H]1O[C@H](O[C@@H]2[C@H](O)[C@@H](O)[C@H](O[C@H]3[C@H](O)[C@@H](O)C(O)O[C@@H]3CO)O[C@@H]2CO)[C@H](O)[C@@H](O)[C@H]1O` (some centres unmarked) [Galα1-4Galβ1-4Glc], the “change of ligand resonances (one-bond 13C-1H splittings) in the presence of the receptor” value was “shifted”. Then `OC[C@H]1O[C@@H](O[C@H]2[C@H](O)[C@@H](O)C(O)O[C@@H]2CO)[C@H](O)[C@@H](O)[C@H]1O` (some centres unmarked) [Galβ1-4Glc, lactose], with “unchanged”.
